Assay results from patent publication US20230257393A1, “MACROMOLECULE-SUPPORTED THIENOAZEPINE COMPOUNDS, AND USES THEREOF” (BOLT BIOTHERAPEUTICS, INC., priority 2020, published 2023).
Like-named read-outs stand apart in the source and are kept apart here.

What was measured:
[1] = molecular target: T1, human TLR7 (Homo sapiens, UniProt Q9NYK1); assay: HEK Reporter Assay, HEK293 NFKB reporter cells expressing human TLR7; format: cell-based; conditions: Table 1a, read-out: HEK293 hTLR7 EC50
T1 construct: host or cells: HEK293 reporter cells
T1 sequence (Q9NYK1 27-1049): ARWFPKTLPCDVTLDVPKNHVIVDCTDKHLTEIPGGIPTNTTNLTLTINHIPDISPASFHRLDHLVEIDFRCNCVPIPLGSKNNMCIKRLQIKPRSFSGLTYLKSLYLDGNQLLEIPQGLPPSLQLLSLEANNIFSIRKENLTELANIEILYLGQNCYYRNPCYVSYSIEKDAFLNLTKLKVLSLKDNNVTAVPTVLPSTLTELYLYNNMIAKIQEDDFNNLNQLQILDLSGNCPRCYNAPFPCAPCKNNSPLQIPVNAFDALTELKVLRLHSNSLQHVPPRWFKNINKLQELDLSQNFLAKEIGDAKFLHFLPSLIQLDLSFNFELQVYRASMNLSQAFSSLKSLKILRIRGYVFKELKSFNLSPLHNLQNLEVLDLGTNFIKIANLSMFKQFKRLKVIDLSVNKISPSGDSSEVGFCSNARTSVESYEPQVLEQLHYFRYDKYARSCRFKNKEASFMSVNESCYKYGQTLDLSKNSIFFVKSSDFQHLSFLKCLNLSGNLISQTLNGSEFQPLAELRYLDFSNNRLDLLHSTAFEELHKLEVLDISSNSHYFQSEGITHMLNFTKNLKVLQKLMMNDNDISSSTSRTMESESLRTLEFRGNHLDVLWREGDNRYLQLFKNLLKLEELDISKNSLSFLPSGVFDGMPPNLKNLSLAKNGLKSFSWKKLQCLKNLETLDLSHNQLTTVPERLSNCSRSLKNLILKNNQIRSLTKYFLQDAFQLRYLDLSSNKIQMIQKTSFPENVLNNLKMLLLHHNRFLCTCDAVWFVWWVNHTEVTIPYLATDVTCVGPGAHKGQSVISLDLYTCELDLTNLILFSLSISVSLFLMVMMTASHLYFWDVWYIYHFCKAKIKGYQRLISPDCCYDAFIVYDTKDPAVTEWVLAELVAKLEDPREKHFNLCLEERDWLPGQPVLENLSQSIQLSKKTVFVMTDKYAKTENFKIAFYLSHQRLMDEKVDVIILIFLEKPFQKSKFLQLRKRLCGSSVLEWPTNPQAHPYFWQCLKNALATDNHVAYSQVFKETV
Description: (§1) Each compound was synthesized, purified, and characterized by mass spectrometry and shown to have the mass indicated. Additional experimental procedures are found in the Examples. Activity against HEK293 NFKB reporter cells expressing human TLR7 or human TLR8 was measured according to Example 202.
(§2) HEK293 reporter cells expressing human TLR7 or human TLR8 were purchased from Invivogen and vendor protocols were followed for cellular propagation and experimentation. Briefly, cells were grown to 80-85% confluence at 5% CO2 in DMEM supplemented with 10% FBS, Zeocin, and Blasticidin. Cells were then seeded in 96-well flat plates at 4×10^4 cells/well with substrate containing HEK detection medium and immunostimulatory molecules. Activity was measured using a plate reader at 620-655 nm wavelength.

[2] = molecular target: T2, human TLR8 (Homo sapiens, UniProt Q9NR97); assay: HEK Reporter Assay, HEK293 NFKB reporter cells expressing human TLR8; format: cell-based; conditions: read-out: HEK293 hTLR8 EC50
T2 construct: host or cells: HEK293 reporter cells
T2 sequence (Q9NR97 27-1041): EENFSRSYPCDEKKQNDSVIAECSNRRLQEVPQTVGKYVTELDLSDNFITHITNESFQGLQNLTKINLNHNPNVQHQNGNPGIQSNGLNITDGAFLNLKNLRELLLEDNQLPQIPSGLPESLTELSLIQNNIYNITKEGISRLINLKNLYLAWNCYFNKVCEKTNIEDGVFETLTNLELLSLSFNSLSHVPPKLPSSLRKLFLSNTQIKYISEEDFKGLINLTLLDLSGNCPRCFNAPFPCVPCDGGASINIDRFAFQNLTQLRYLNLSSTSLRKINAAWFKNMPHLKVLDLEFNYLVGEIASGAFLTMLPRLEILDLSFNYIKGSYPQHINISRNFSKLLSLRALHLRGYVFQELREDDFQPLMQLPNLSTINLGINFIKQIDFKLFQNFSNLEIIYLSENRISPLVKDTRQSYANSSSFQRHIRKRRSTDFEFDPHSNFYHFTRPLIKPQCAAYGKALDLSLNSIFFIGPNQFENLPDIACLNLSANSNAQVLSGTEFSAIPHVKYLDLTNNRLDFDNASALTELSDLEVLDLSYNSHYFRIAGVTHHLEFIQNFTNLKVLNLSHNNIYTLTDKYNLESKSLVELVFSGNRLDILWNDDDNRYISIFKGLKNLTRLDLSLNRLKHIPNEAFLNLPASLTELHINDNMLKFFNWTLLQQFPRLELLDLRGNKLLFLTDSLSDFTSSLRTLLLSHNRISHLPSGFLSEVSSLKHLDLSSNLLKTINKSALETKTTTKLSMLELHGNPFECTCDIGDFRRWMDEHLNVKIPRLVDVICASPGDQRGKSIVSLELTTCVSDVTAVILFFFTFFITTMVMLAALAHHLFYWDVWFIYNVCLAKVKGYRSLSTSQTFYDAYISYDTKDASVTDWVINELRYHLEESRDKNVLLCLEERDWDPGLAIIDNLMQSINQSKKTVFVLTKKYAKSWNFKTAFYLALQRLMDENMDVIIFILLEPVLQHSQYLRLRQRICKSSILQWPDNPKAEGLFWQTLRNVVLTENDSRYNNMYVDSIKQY
Description: as §1, §2

| SMILES | EC50 [1] | EC50 ([2]; Table 1a) | EC50 ([2]; Table 1c) |
| --- | --- | --- | --- |
| CCCN(CCC)C(=O)C1=Cc2sc(Br)cc2N=C(N)C1 [TAZ-1, 5-amino-2-bromo-N,N-dipropyl-6H-thieno[3,2-b]azepine-7-carboxamide] | > 9 µM | > 9 µM |  |
| CCCN(CCC)C(=O)C1=Cc2sc(-c3cccc(S(=O)(=O)N4CC(CO)C4)c3)cc2N=C(N)C1 [TAZ-4, 5-amino-2-[3-[3-(hydroxymethyl)azetidin-1-yl]sulfonylphenyl]-N,N-dipropyl-6H-thieno[3,2-b]azepine-7-carboxamide] | > 9 µM | > 9 µM |  |
| CCCN(CCC)C(=O)C1=Cc2sc(C)cc2N=C(N)C1 [TAZ-7, 5-amino-2-methyl-N,N-dipropyl-6H-thieno[3,2-b]azepine-7-carboxamide] | > 9 µM | > 9 µM |  |
| CCCN(CC#CCNC(=O)OC(C)(C)C)C(=O)C1=Cc2sc(Br)cc2N=C(N)C1 [TAZ-10, tert-butyl N-[4-[(5-amino-2-bromo-6H-thieno[3,2-b]azepine-7-carbonyl)-propyl-amino]but-2-ynyl]carbamate] |  | > 9 µM |  |
| CCCN(CCCN)C(=O)C1=Cc2sccc2N=C(N)C1 [TAZ-11, 5-amino-N-(3-aminopropyl)-N-propyl-6H-thieno[3,2-b]azepine-7-carboxamide] | > 9 µM | > 9 µM |  |
| CCCN(CCC)C(=O)C1=Cc2sc(-c3cnn(S(=O)(=O)N4CC(CO)C4)c3)cc2N=C(N)C1 [TAZ-12, 5-amino-2-[1-[3-(hydroxymethyl)azetidin-1-yl]sulfonylpyrazol-4-yl]-N,N-dipropyl-6H-thieno[3,2-b]azepine-7-carboxamide] | > 9 µM | > 9 µM |  |
| CCCN(CCC)C(=O)C1=Cc2sc(-c3ccccc3)cc2N=C(N)C1 [TAZ-18, 5-amino-2-phenyl-N,N-dipropyl-6H-thieno[3,2-b]azepine-7-carboxamide] | > 9 µM | > 9 µM |  |
| CCCN(CCC)C(=O)C1=Cc2sc(-c3cnn(COCC[Si](C)(C)C)c3)cc2N=C(N)C1 [TAZ-19, 5-amino-N,N-dipropyl-2-(1-((2-(trimethylsilyl)ethoxy)methyl)-1H-pyrazol-4-yl)-6H-thieno[3,2-b]azepine-7-carboxamide] | > 9 µM | > 9 µM |  |
| CCCN(CCC)C(=O)C1=Cc2sc(C(=O)OC)cc2N=C(N)C1 [TAZ-20, methyl 5-amino-7-(dipropylcarbamoyl)-6H-thieno[3,2-b]azepine-2-carboxylate] | > 9 µM | > 9 µM |  |
| CCCN(CCC)C(=O)C1=Cc2sc(-c3cn[nH]c3)cc2N=C(N)C1 [TAZ-21, 5-amino-N,N-dipropyl-2-(1H-pyrazol-4-yl)-6H-thieno[3,2-b]azepine-7-carboxamide] | > 9 µM | > 9 µM |  |
| CCCN(CCC)C(=O)C1=Cc2sc(C(=O)O)cc2N=C(N)C1 [TAZ-22, 5-amino-7-(dipropylcarbamoyl)-6H-thieno[3,2-b]azepine-2-carboxylic acid] | > 9 µM | > 9 µM |  |
| CCCN(CCC)C(=O)C1=Cc2sc(C(=O)Nc3ccccc3)cc2N=C(N)C1 [TAZ-23, 5-amino-N2-phenyl-N7,N7-dipropyl-6H-thieno [3,2-b]azepine-2,7-dicarboxamide] | > 9 µM | > 9 µM |  |
| CCCN(CCC)C(=O)C1=Cc2sc(C(=O)NCC)cc2N=C(N)C1 [TAZ-24, 5-amino-N2-ethyl-N7,N7-dipropyl-6H-thieno[3,2-b]azepine-2,7-dicarboxamide] | > 9 µM | > 9 µM |  |
| CCCN(CCC)C(=O)C1=Cc2sc(Cc3ccccc3)cc2N=C(N)C1 [TAZ-26, 5-amino-2-benzyl-N,N-dipropyl-6H-thieno[3,2-b] azepine-7-carboxamide] | > 9 µM | > 9 µM |  |
| CCCN(C[C@H]1CC[C@@H](CNC(=O)OC(C)(C)C)CC1)C(=O)C1=Cc2sccc2N=C(N)C1 [TAZ-119] |  |  | ≥ 9 µM |
| CCCN(CCCNC(=O)C(C)(C)C)C(=O)C1=Cc2sc(CCCCCN)cc2N=C(N)C1 [TAZ-142] |  |  | ≥ 9 µM |
| CCCN(Cc1ccc(CN(C)C)cc1C(F)(F)F)C(=O)C1=Cc2sc(CCCCCNC(=O)OC(C)(C)C)cc2N=C(N)C1 [TAZ-143] |  |  | ≥ 9 µM |
| CCCN(OCC)C(=O)C1=Cc2sc(C#CC3CCN(C(=O)OC(C)(C)C)CC3)cc2N=C(N)C1 [TAZ-173] |  |  | ≥ 9 µM |

Results, then the compound that gave them:

| EC50 [1] | EC50 ([2]; Table 1a) | EC50 ([2]; Table 1c) | SMILES |
| --- | --- | --- | --- |
| > 9 µM | > 9 µM |  | CCCN(CCC)C(=O)C1=Cc2sc(C(=O)Nc3ccc(N4CCC(C(=O)NCCNC(=O)OC(C)(C)C)CC4)nc3)cc2N=C(N)C1 [TAZ-3, tert-butyl (2-(1-(5-(5-amino-7-(dipropylcarbamoyl)-6H-thieno[3,2-b]azepine-2-carboxamido)pyridin-2-yl)piperidine-4-carboxamido)ethyl)carbamate] |
| > 9 µM | > 9 µM |  | CCCN(CCCNC(=O)OC(C)(C)C)C(=O)C1=Cc2sc(Br)cc2N=C(N)C1 [TAZ-9, tert-butyl N-[3-[(5-amino-2-bromo-6H-thieno[3,2-b]azepine-7-carbonyl)-propyl-amino]propyl]carbamate] |
| > 9 µM | > 9 µM |  | CCCN(CCC)C(=O)C1=Cc2sc(CCCCCNC(=O)OC(C)(C)C)cc2N=C(N)C1 [TAZ-13, tert-butyl N-[5-[5-amino-7-(dipropylcarbamoyl)-6H-thieno[3,2-b]azepin-2-yl]pentyl]carbamate] |
|  |  | ≥ 9 µM | CCCN(C(=O)C1=Cc2sc(CCCCCNC(=O)OC(C)(C)C)cc2N=C(N)C1)C1CC1 [TAZ-123] |
|  |  | ≥ 9 µM | CCCN(CC1CC1)C(=O)C1=Cc2sc(CCCCCNC(=O)OC(C)(C)C)cc2N=C(N)C1 [TAZ-125] |
|  |  | ≥ 9 µM | CCCN(CCCNC(=O)CC(C)(C)C)C(=O)C1=Cc2sc(CN3CCNCC3)cc2N=C(N)C1 [TAZ-139] |
|  |  | ≥ 9 µM | CCCN(CCCNC(=O)OC1CCC1)C(=O)C1=Cc2sc(CN3CCNCC3)cc2N=C(N)C1 [TAZ-169] |
|  |  | ≥ 9 µM | CCCN(CCCNC(=O)OC1CCC1)C(=O)C1=Cc2sc(CN3CCN(c4ccc(C(=O)OC)cc4)CC3)cc2N=C(N)C1 [TAZ-180] |
|  |  | ≥ 9 µM | CCCN(CCCNC(=O)OC1CCC1)C(=O)C1=Cc2sc(CC3CNC3)cc2N=C(N)C1 [TAZ-181] |
|  |  | ≥ 9 µM | CCCN(CCCNC(=O)OC1CCC1)C(=O)C1=Cc2sc(CC3CCNCC3)cc2N=C(N)C1 [TAZ-185, cyclobutyl N-[3-[[5-amino-2-(4-piperidylmethyl)-6H-thieno[3,2-b]azepine-7-carbonyl]-propyl-amino]propyl]carbamate] |
|  |  | ≥ 9 µM | CCCN(CCCNC(=O)OC1CCC1)C(=O)C1=Cc2sc(CCC3CNC3)cc2N=C(N)C1 [TAZ-197] |
|  |  | 2.25 µM | CCCN(CCCNC(=O)OC1CCC1)C(=O)C1=Cc2sc(CNC(=O)Cc3ccccc3)cc2N=C(N)C1 [TAZ-204] |
